Laboratory results taken from PubChem BioAssay AID1963448 (Molecular Pharmacology Branch, DTP, NCI, 2024).

Tested on: 616215-338-R-J1-PDC complex spheroid growth, % test/control
Experiment: Anticancer human tumor 616215-338-R-J1-PDC patient-derived colon adenocarcinoma cell line growth inhibition [Asc]
Conditions: for IC50: curve of first compound; for viability, T/C: stronger effect = lower value
Outline: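 Tumor cells were grown as multicellular spheroids with stromal HUVEC and mesenchymal stem cells and treated singly or in combination. Concentrations fell in half-log steps from the clinical Cmax, or from 10 microM where none was known.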

[1] = second compound 0.00316 µM, first compound 0.0316 µM
[2] = second compound 0.00316 µM, first compound 0.1 µM
[3] = second compound 0.00316 µM, first compound 0.316 µM
[4] = second compound 0.00316 µM, first compound 1 µM
[5] = second compound 0.00316 µM, first compound 3.16 µM
[6] = second compound 0.00316 µM, first compound 10 µM
[7] = second compound 0.01 µM, first compound 0.0316 µM
[8] = second compound 0.01 µM, first compound 0.1 µM
[9] = second compound 0.01 µM, first compound 0.316 µM
[10] = second compound 0.01 µM, first compound 1 µM
[11] = second compound 0.01 µM, first compound 3.16 µM
[12] = second compound 0.01 µM, first compound 10 µM
[13] = second compound 0.0316 µM, first compound 0.0316 µM
[14] = second compound 0.0316 µM, first compound 0.1 µM
[15] = second compound 0.0316 µM, first compound 0.316 µM
[16] = second compound 0.0316 µM, first compound 1 µM
[17] = second compound 0.0316 µM, first compound 3.16 µM
[18] = second compound 0.0316 µM, first compound 10 µM
[19] = second compound 0.1 µM, first compound 0.0316 µM
[20] = second compound 0.1 µM, first compound 0.1 µM
[21] = second compound 0.1 µM, first compound 0.316 µM
[22] = second compound 0.1 µM, first compound 1 µM
[23] = second compound 0.1 µM, first compound 3.16 µM
[24] = second compound 0.1 µM, first compound 10 µM
[25] = second compound 0.316 µM, first compound 0.0316 µM
[26] = second compound 0.316 µM, first compound 0.1 µM
[27] = second compound 0.316 µM, first compound 0.316 µM
[28] = second compound 0.316 µM, first compound 1 µM
[29] = second compound 0.316 µM, first compound 3.16 µM
[30] = second compound 0.316 µM, first compound 10 µM
[31] = second compound 1 µM, first compound 0.0316 µM
[32] = second compound 1 µM, first compound 0.1 µM
[33] = second compound 1 µM, first compound 0.316 µM
[34] = second compound 1 µM, first compound 1 µM
[35] = second compound 1 µM, first compound 3.16 µM
[36] = second compound 1 µM, first compound 10 µM
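Further: spheroids exposed to agents for seven days before readout.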
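Wherever viability, T/C is given: 100% = DMSO vehicle control viability.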

With `C#Cc1c(F)ccc2cc(O)cc(-c3ncc4c(N5CC6CCC(C5)N6)nc(OCC56CCCN5CC(F)C6)nc4c3F)c12` (centres undefined) + CNC(C)C(=O)NC1CN(S(=O)(=O)c2cccc(S(=O)(=O)N3CCC4CCC(C(=O)NC(c5ccccc5)c5ccccc5)N4C(=O)C(NC(=O)C(C)NC)C3)c2)CCC2CCC(C(=O)NC(c3ccccc3)c3ccccc3)N2C1=O the IC50 (second compound 0.00316 µM) was 2280 nM, the IC50 (second compound 0.01 µM) was 2490 nM and the IC50 (second compound 0.0316 µM) was 3760 nM. For the same compound, the IC50 (second compound 0.1 µM) was 2330 nM, the IC50 (second compound 0.316 µM) was 2720 nM and the IC50 (second compound 1 µM) was 2100 nM. It also gave a viability, T/C [1] of 94.8%, a viability, T/C [2] of 104% and a viability, T/C [3] of 95.6%. It also gave a viability, T/C [4] of 100%, a viability, T/C [5] of 30.6% and a viability, T/C [6] of 6.11%. For the same compound, the viability, T/C [7] was 101%, the viability, T/C [8] was 99.3% and the viability, T/C [9] was 104%. For the same compound, the viability, T/C [10] was 97.6%, the viability, T/C [11] was 37.4% and the viability, T/C [12] was 5.11%. The viability, T/C [13] was 100%, the viability, T/C [14] was 95.7% and the viability, T/C [15] was 99.9%. For the same compound, the viability, T/C [16] was 104%, the viability, T/C [17] was 57.1% and the viability, T/C [18] was 9.6%. For the same compound, the viability, T/C [19] was 90.9%, the viability, T/C [20] was 102% and the viability, T/C [21] was 105%. The viability, T/C [22] was 89.4%, the viability, T/C [23] was 35.7% and the viability, T/C [24] was 4.68%. It also gave a viability, T/C [25] of 98.7%, a viability, T/C [26] of 102% and a viability, T/C [27] of 109%. For the same compound, the viability, T/C [28] was 89.9%, the viability, T/C [29] was 44.2% and the viability, T/C [30] was 6.83%. The viability, T/C [31] was 106%, the viability, T/C [32] was 86% and the viability, T/C [33] was 102%. For the same compound, the viability, T/C [34] was 104%, the viability, T/C [35] was 22.4% and the viability, T/C [36] was 3.39%.
`C=C(F)C(=O)N1CCN(c2nc(OCC3CCCN3C)nc3c2CCN(c2cccc4cccc(Cl)c24)C3)CC1CC#N` (centres undefined) + CNC(C)C(=O)NC1CN(S(=O)(=O)c2cccc(S(=O)(=O)N3CCC4CCC(C(=O)NC(c5ccccc5)c5ccccc5)N4C(=O)C(NC(=O)C(C)NC)C3)c2)CCC2CCC(C(=O)NC(c3ccccc3)c3ccccc3)N2C1=O showed an IC50 (second compound 0.00316 µM) of 175 nM, an IC50 (second compound 0.01 µM) of 162 nM and an IC50 (second compound 0.0316 µM) of 155 nM. For the same compound, the IC50 (second compound 0.1 µM) was 52.6 nM, the IC50 (second compound 0.316 µM) was 243 nM and the IC50 (second compound 1 µM) was 131 nM. For the same compound, the viability, T/C [1] was 61%, the viability, T/C [2] was 53.5% and the viability, T/C [3] was 43.7%. It also gave a viability, T/C [4] of 23.7%, a viability, T/C [5] of 1.09% and a viability, T/C [6] of 0.18%. For the same compound, the viability, T/C [7] was 64.8%, the viability, T/C [8] was 53.1% and the viability, T/C [9] was 41.4%. For the same compound, the viability, T/C [10] was 26.3%, the viability, T/C [11] was 0.82% and the viability, T/C [12] was 2.38%. It also gave a viability, T/C [13] of 65.3%, a viability, T/C [14] of 43.8% and a viability, T/C [15] of 47.5%. It also gave a viability, T/C [16] of 21.2%, a viability, T/C [17] of 0.88% and a viability, T/C [18] of 0.16%. The viability, T/C [19] was 54.9%, the viability, T/C [20] was 43.8% and the viability, T/C [21] was 39.4%. For the same compound, the viability, T/C [22] was 23.5%, the viability, T/C [23] was 0.85% and the viability, T/C [24] was 1.36%. For the same compound, the viability, T/C [25] was 56.5%, the viability, T/C [26] was 58.4% and the viability, T/C [27] was 47.7%. For the same compound, the viability, T/C [28] was 13.9%, the viability, T/C [29] was 1.16% and the viability, T/C [30] was 0.18%. It also gave a viability, T/C [31] of 60%, a viability, T/C [32] of 52% and a viability, T/C [33] of 38.8%. The viability, T/C [34] was 15.7%, the viability, T/C [35] was 1.42% and the viability, T/C [36] was 0.21%.
